Columns and labels:
[1] = Inhibition of VEGFR expressed in PAE cells by Western blot analysis; assay type: cell-based
[2] = Inhibition of PDGFR expressed in NIH cells by Western blot analysis; assay type: cell-based
[3] = target: Epidermal growth factor receptor (Homo sapiens, UniProt P00533); assay: Inhibition of EGFR expressed in DHER14 cells by Western blot analysis; assay type: cell-based
[4] = target: Receptor tyrosine-protein kinase erbB-2 (Homo sapiens, UniProt P04626); assay: Inhibition of Her2 expressed in CSH12 cells by Western blot analysis; assay type: cell-based
[5] = target: Insulin-like growth factor 1 receptor (Homo sapiens, UniProt P08069); assay: Inhibition of IGF1R by ELISA
Plasma = assay: Ex vivo stability in human plasma assessed as radioactivity at 300 uCi upto 120 hrs; assay type: ADME, cell-free

Chain of Receptor tyrosine-protein kinase erbB-2 (P04626 whole entry): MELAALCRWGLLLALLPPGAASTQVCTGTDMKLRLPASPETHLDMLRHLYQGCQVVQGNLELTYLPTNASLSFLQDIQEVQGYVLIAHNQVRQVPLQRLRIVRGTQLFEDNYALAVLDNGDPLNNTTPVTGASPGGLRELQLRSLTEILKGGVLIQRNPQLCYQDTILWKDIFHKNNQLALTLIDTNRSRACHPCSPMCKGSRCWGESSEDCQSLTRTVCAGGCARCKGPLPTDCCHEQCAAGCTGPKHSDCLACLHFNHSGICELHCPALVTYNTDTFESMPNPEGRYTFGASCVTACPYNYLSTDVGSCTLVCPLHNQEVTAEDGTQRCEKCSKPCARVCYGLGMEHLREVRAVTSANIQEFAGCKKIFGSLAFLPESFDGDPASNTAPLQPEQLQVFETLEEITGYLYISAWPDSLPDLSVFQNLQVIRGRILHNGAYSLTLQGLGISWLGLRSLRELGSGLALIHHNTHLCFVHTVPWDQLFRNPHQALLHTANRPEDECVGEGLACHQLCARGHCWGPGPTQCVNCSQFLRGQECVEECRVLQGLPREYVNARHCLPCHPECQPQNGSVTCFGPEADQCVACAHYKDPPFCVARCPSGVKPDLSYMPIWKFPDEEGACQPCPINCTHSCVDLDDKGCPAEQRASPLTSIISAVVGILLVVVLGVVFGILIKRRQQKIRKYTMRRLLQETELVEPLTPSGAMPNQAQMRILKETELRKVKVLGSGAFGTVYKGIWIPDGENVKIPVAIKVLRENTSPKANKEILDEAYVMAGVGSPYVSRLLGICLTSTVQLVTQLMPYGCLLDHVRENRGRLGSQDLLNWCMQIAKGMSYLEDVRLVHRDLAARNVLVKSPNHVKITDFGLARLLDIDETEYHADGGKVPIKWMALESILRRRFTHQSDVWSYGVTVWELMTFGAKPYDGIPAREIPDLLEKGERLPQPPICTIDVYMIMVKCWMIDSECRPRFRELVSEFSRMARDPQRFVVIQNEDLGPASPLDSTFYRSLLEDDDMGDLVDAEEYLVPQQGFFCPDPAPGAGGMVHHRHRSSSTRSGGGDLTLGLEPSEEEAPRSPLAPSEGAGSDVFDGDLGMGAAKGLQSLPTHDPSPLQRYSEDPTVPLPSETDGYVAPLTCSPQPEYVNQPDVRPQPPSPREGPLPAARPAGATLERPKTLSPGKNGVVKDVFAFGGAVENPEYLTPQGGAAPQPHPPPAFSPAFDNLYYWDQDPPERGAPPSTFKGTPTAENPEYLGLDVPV
Chain of Insulin-like growth factor 1 receptor (P08069 31-736 limits assumed): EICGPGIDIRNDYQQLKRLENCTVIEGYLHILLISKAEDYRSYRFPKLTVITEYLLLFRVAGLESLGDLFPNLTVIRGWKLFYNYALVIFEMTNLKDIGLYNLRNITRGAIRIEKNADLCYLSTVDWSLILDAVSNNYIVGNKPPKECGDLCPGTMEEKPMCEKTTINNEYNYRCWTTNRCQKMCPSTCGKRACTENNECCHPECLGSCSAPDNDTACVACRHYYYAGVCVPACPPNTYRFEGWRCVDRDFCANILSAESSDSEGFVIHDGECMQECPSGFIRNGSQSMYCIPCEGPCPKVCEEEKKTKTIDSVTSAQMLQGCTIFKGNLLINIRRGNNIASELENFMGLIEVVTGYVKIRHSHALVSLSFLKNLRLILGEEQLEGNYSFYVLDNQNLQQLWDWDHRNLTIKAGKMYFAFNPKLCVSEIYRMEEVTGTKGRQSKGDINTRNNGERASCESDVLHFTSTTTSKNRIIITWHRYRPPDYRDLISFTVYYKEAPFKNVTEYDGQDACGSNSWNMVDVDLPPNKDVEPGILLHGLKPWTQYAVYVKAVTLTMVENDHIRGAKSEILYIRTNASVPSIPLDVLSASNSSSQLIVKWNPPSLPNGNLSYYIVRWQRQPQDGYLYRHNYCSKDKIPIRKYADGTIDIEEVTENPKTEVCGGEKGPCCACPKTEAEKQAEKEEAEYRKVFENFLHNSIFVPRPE
Chain of Insulin-like growth factor 1 receptor (P08069 741-1367 limits assumed): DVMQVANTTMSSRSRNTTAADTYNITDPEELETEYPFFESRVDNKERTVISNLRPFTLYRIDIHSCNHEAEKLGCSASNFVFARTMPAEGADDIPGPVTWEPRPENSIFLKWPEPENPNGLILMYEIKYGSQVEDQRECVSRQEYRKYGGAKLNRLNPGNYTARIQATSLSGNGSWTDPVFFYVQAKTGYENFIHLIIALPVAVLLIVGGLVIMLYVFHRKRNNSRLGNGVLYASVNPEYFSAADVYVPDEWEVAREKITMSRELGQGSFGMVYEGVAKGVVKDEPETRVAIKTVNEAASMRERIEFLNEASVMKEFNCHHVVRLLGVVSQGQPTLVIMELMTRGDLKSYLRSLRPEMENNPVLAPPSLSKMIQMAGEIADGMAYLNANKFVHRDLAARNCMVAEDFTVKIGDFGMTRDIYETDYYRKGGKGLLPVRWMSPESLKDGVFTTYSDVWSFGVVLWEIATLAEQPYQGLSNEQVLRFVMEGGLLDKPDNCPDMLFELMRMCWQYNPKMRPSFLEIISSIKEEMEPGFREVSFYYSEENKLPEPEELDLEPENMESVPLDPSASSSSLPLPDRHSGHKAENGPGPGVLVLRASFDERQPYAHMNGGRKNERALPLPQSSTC
Chain of Epidermal growth factor receptor (P00533 whole entry): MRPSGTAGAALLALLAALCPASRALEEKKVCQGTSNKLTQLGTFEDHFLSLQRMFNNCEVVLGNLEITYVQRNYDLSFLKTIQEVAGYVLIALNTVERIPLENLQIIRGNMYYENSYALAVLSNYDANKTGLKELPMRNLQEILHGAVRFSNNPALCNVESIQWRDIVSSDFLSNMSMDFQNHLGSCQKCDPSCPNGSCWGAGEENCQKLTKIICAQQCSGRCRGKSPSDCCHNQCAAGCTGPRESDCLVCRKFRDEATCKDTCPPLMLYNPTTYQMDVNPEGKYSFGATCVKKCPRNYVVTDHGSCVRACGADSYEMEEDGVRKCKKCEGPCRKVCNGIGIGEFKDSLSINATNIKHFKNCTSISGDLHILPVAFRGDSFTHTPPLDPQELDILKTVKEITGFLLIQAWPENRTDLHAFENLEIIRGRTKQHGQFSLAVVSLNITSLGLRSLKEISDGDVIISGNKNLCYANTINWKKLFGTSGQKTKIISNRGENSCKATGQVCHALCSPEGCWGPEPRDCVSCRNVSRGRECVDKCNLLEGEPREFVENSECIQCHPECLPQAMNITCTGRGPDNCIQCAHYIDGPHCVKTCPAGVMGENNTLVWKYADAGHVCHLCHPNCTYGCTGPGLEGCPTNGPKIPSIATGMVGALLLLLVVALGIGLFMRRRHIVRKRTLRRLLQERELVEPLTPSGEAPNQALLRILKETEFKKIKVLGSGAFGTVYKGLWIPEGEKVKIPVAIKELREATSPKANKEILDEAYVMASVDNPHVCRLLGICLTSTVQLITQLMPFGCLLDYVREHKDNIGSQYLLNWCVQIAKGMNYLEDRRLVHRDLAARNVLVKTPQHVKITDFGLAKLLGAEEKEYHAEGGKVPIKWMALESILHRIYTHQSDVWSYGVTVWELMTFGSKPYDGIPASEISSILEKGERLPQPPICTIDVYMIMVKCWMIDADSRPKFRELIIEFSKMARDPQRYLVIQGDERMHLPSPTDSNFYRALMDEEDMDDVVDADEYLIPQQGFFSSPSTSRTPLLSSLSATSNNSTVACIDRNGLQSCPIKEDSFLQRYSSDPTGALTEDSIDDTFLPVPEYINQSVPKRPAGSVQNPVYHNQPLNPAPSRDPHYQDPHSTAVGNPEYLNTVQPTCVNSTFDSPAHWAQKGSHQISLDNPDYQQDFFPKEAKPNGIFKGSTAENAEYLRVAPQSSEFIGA

| IC50 [1] | IC50 [2] | IC50 [3] | IC50 [4] | IC50 [5] | Stability (Plasma) | Compound |
| --- | --- | --- | --- | --- | --- | --- |
| 4 nM | 2 nM | > 500 nM | > 500 nM | > 2000 nM |  | COc1cc2nccc(Oc3ccc(NC(=O)Nc4ccccc4F)cc3F)c2cc1OC |
|  | 2 nM | > 500 nM | > 500 nM | > 2000 nM |  | COc1cc2nccc(Oc3ccc(NC(=O)Nc4ccc(F)cc4F)cc3F)c2cc1OC |
| 8 nM | 2 nM | > 500 nM | > 500 nM | > 2000 nM |  | COc1cc2nccc(Oc3ccc(NC(=O)Nc4ccc(F)cc4)cc3F)c2cc1OC |
|  |  |  |  |  | Stable | COc1cc2nccc(Oc3ccc(NC(=O)Nc4ccc([18F])cc4)cc3F)c2cc1OC |

— ChEMBL document CHEMBL1144754, “Formation of fluorine-18 labeled diaryl ureas--labeled VEGFR-2/PDGFR dual inhibitors as molecular imaging agents for angiogenesis” (Bioorg Med Chem, 2008)
